From patent US8791303B2, “Herbicides” (Syngenta Limited, priority 2009, dated 2014)

Legend:
Type in all cases: in vivo
Lolium perenne (LOLPE) [1] = test: Example A glasshouse herbicide test, post-emergence, LOLPE; conditions: Lolium perenne, post-emergence, 312 h, Rate 250 g/ha, sprayed after 8 days cultivation, evaluated after 13 days, read-out: Post-Emergence Activity LOLPE (100=total damage to plant; 0=no damage to plant)
Protocol: (§1) Seeds of a variety of test species are sown in standard soil in pots. After cultivation for one day (pre-emergence) or after 8 days cultivation (post-emergence) under controlled conditions in a glasshouse (at 24/16° C., day/night; 14 hours light; 65% humidity), the plants are sprayed with an aqueous spray solution derived from the formulation of the technical active ingredient in acetone/water (50:50) solution containing 0.5% Tween 20 (polyoxyethelyene sorbitan monolaurate, CAS RN 9005-64-5).
(§2) The test plants are then grown in a glasshouse under controlled conditions in a glasshouse (at 24/16° C., day/night; 14 hours light; 65% humidity) and watered twice daily. After 13 days for pre and post-emergence, the test is evaluated (100=total damage to plant; 0=no damage to plant).
(§3) Lolium perenne (LOLPE), Alopecurus myosuroides (ALOMY), Echinochloa crus-galli (ECHCG), Avena fatua (AVEFA)

[2] = test system: Alopecurus myosuroides (ALOMY); test: Example A glasshouse herbicide test, post-emergence, ALOMY; conditions: Alopecurus myosuroides, post-emergence, 312 h, Rate 250 g/ha, sprayed after 8 days cultivation, evaluated after 13 days, read-out: Post-Emergence Activity ALOMY (100=total damage to plant; 0=no damage to plant)
Protocol: as §1, §2, §3

[3] = test system: Echinochloa crus-galli (ECHCG); test: Example A glasshouse herbicide test, post-emergence, ECHCG; conditions: Echinochloa crus-galli, post-emergence, 312 h, Rate 250 g/ha, sprayed after 8 days cultivation, evaluated after 13 days, read-out: Post-Emergence Activity ECHCG (100=total damage to plant; 0=no damage to plant)
Protocol: as §1, §2, §3

Avena fatua (AVEFA) [4] = test: Example A glasshouse herbicide test, post-emergence, AVEFA; conditions: Avena fatua, post-emergence, 312 h, Rate 250 g/ha, sprayed after 8 days cultivation, evaluated after 13 days, read-out: Post-Emergence Activity AVEFA (100=total damage to plant; 0=no damage to plant)
Protocol: as §1, §2, §3

Lolium perenne (LOLPE) [5] = test: Example A glasshouse herbicide test, pre-emergence, LOLPE; conditions: Lolium perenne, pre-emergence, 312 h, Rate 250 g/ha, sprayed after cultivation for one day, evaluated after 13 days, read-out: Pre-Emergence Activity LOLPE (100=total damage to plant; 0=no damage to plant)
Protocol: as §1, §2, §3

[6] = test system: Alopecurus myosuroides (ALOMY); test: Example A glasshouse herbicide test, pre-emergence, ALOMY; conditions: Alopecurus myosuroides, pre-emergence, 312 h, Rate 250 g/ha, sprayed after cultivation for one day, evaluated after 13 days, read-out: Pre-Emergence Activity ALOMY (100=total damage to plant; 0=no damage to plant)
Protocol: as §1, §2, §3

[7] = test system: Echinochloa crus-galli (ECHCG); test: Example A glasshouse herbicide test, pre-emergence, ECHCG; conditions: Echinochloa crus-galli, pre-emergence, 312 h, Rate 250 g/ha, sprayed after cultivation for one day, evaluated after 13 days, read-out: Pre-Emergence Activity ECHCG (100=total damage to plant; 0=no damage to plant)
Protocol: as §1, §2, §3

Avena fatua (AVEFA) [8] = test: Example A glasshouse herbicide test, pre-emergence, AVEFA; conditions: Avena fatua, pre-emergence, 312 h, Rate 250 g/ha, sprayed after cultivation for one day, evaluated after 13 days, read-out: Pre-Emergence Activity AVEFA (100=total damage to plant; 0=no damage to plant)
Protocol: as §1, §2, §3

[9] = test system: Winter Wheat variety 'Hereward'; test: Example B crop damage test, post-emergence, unsafened wheat; conditions: Rate 250 g/ha; post-emergence spray after 8 days cultivation; no safener; evaluated after 13 days
Protocol: Seeds of the Winter Wheat variety ‘Hereward’ were sown in standard soil in pots. After 8 days cultivation under controlled conditions in a glasshouse (at 24/16° C., day/night; 14 hours light; 65% humidity), the plants were sprayed post-emergence with an aqueous spray solution derived from the formulation of the technical active ingredient in acetone/water (50:50) solution containing 0.5% Tween 20 (polyoxyethelyene sorbitan monolaurate, CAS RN 9005-64-5).
(§4) The test plants were then grown in a glasshouse under controlled conditions in a glasshouse (at 24/16° C., day/night; 14 hours light; 65% humidity) and watered twice daily. After 13 days for pre and post-emergence, the test was evaluated (100=total damage to plant; 0=no damage to plant).

[10] = test system: Winter Wheat variety 'Hereward'; test: Example B crop damage test, post-emergence, wheat seed treated with safener cloquintocet mexyl; conditions: Rate 250 g/ha; post-emergence spray 8 days after sowing; seed treated with cloquintocet mexyl 0.5 g/kg dry seed; evaluated after 13 days
Protocol: Seeds of the Winter Wheat variety ‘Hereward’ were seed treated with a wettable powder formulation of the cereal herbicide safener, cloquintocet mexyl, at a rate of 0.5 grams per kilogram of dry seed prior to the initiation of glasshouse testing. One seed was sown per 1.5 inch plastic pot into a sandy loam soil at a depth of 1 cm, 8 days prior to application of the test compounds and was watered and grown under controlled conditions in a glasshouse (at 24/16° C., day/night; 14 hours light; 65% humidity). The plants were sprayed post-emergence with an aqueous spray solution derived from the formulation of the technical active ingredient in acetone/water (50:50) solution containing 0.5% Tween 20 (polyoxyethelyene sorbitan monolaurate, CAS RN 9005-64-5).
as §4

Row | SMILES | pest or weed control at 250 g/ha (Lolium perenne (LOLPE) [1]) [%] | pest or weed control at 250 g/ha [2] [%] | pest or weed control at 250 g/ha [3] [%] | pest or weed control at 250 g/ha (Avena fatua (AVEFA) [4]) [%] | pest or weed control at 250 g/ha (Lolium perenne (LOLPE) [5]) [%] | pest or weed control at 250 g/ha [6] [%] | pest or weed control at 250 g/ha [7] [%] | pest or weed control at 250 g/ha (Avena fatua (AVEFA) [8]) [%] | Winter Wheat (Hereward) damage (100=total damage to plant; 0=no damage to plant) [9] | Winter Wheat (Hereward) + cloquintocet mexyl damage (100=total damage to plant; 0=no damage to plant) [10]
1 | Cc1cc(C)c(C2C(=O)C/C(=C\C3CCCC4CCCCC34)C2=O)c(C)c1 (stereo not drawn) [Compound A31] | 70 | 20 | 80 | 20 | 90 | 40 | 90 | 20 | 20 | 0
2 | Cc1cc(C)c(C2=C(OC(=O)C(C)(C)C)C(CC3CCC(=O)CC3)CC2=O)c(C)c1 (stereo not drawn) [Compound B3] | 90 | 70 | 90 | 90 | 90 | 70 | 50 | 50 | 40 | 30
3 | Cc1cc(C)c(C2C(=O)C/C(=C\C3CCCC3)C2=O)c(C)c1 (stereo not drawn) [Compound A4] | 60 | 70 | 90 | 70 | 100 | 100 | 100 | 70 | 60 | 0
4 | Cc1cc(C)c(C2C(=O)CC(CC3CCCC3)C2=O)c(C)c1 (stereo not drawn) [Compound A3] | 90 | 90 | 90 | 80 | 100 | 100 | 100 | 70 | 60 | 20
5 | Cc1cc(C)c(C2=C(OC(=O)C(C)(C)C)C/C(=C\C3CCCCC3)C2=O)c(C)c1 [Compound B1] | 70 | 50 | 30 | 10 | 80 | 70 | 100 | 20 | 10 | 0
6 | C=C(C)C1CCC(/C=C2\CC(=O)C(c3c(C)cc(C)cc3C)C2=O)CC1 (stereo not drawn) [Compound A5] | 30 | 30 | 30 | 20 | 40 | 30 | 80 | 0 | 10 | 0
7 | Cc1cc(Br)cc(C)c1C1C(=O)C/C(=C\C2CCCCC2)C1=O (stereo not drawn) [Compound A7] | 30 | 50 | 80 | 40 | 60 | 40 | 50 | 20 | 20 | 0
8 | Cc1cc(C)c(C2C(=O)CC(CC3CC3)C2=O)c(C)c1 (stereo not drawn) [Compound A28, 4-Cyclopropylmethyl-2-(2,4,6-trimethyl-phenyl)-cyclopentane-1,3-dione] | 100 | 70 | 90 | 50 | 100 | 90 | 100 | 70 | 30 | 10
9 | Cc1cc(C)c(C2C(=O)C/C(=C\C3CCCC(C)C3)C2=O)c(C)c1 (stereo not drawn) [Compound A30] | 60 | 60 | 80 | 70 | 100 | 80 | 100 | 70 | 50 | 0
10 | Cc1cccc(C)c1C1C(=O)CC(CC2CCCCC2)C1=O (stereo not drawn) [Compound A10, 4-cyclohexylmethyl-2-(2,6-dimethyl-phenyl)-cyclopentane-1,3-dione] | 40 | 20 | 70 | 20 | 80 | 0 | 20 | 0 | 10 | 0
11 | Cc1cc(C)c(C2C(=O)CC(CC3CCCCC3)C2=O)c(C)c1 (stereo not drawn) [Compound A2] | 100 | 70 | 90 | 80 | 100 | 70 | 90 | 70 | 70 | 10
12 | COC1CCC(CC2CC(=O)C(c3c(C)cc(C)cc3C)C2=O)CC1 (stereo not drawn) [Compound A38, 4-(4-Methoxy-cyclohexylmethyl)-2-(2,4,6-trimethyl-phenyl)-cyclopentane-1,3-dione] | 100 | 100 | 100 | 100 | 100 | 90 | 100 | 60 | 70 | 50
